Measurements taken from ChEMBL document CHEMBL1201862, “PubChem BioAssay data set” (2004).
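Tested at 5 concentrations; 48 h exposure; 96-well plates; endpoints linearly interpolated, else capped at highest concentration. The concentration for 50% growth inhibition is given as GI50.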 The source made the active and inactive calls. No stated cut-off is given here; in the data, active = GI50 up to about 1.1 µM and inactive = higher.

Experiments:
Test in all cases: growth of human tumour cells (NCI), 48 h
A549 = system: A549
ACHN = system: ACHN
BT-549 = system: BT-549
CAKI-1 = system: CAKI-1
CCRF-CEM = system: CCRF-CEM
COLO 205 = system: COLO 205
DU-145 = system: DU-145
EKVX = system: EKVX
HCC 2998 = system: HCC 2998
HCT-116 = system: HCT-116
HCT-15 = system: HCT-15
HL-60 = system: HL-60
HOP-62 = system: HOP-62
HT-29 = system: HT-29
Hs-578T = system: Hs-578T
IGROV-1 = system: IGROV-1
K562 = system: K562
KM12 = system: KM12
LOX IMVI = system: LOX IMVI
MCF7 = system: MCF7
MDA-MB-231 = system: MDA-MB-231
MDA-MB-435 = system: MDA-MB-435
MDA-N = system: MDA-N
MOLT-4 = system: MOLT-4
Malme-3M = system: Malme-3M
NCI-H226 = system: NCI-H226
NCI-H23 = system: NCI-H23
NCI-H460 = system: NCI-H460
NCI-H522 = system: NCI-H522
NCI/ADR-RES = system: NCI/ADR-RES
OVCAR-3 = system: OVCAR-3
OVCAR-5 = system: OVCAR-5
OVCAR-8 = system: OVCAR-8
PC-3 = system: PC-3
RPMI-8226 = system: RPMI-8226
RXF 393 = system: RXF 393
SF-268 = system: SF-268
SF-295 = system: SF-295
SF-539 = system: SF-539
SK-MEL-28 = system: SK-MEL-28
SK-MEL-5 = system: SK-MEL-5
SN12C = system: SN12C
SNB-19 = system: SNB-19
SNB-75 = system: SNB-75
SR = system: SR
SW-620 = system: SW-620
T47D = system: T47D
TK-10 = system: TK-10
U-251 = system: U-251
UACC-257 = system: UACC-257
UACC-62 = system: UACC-62
UO-31 = system: UO-31
786-0 = system: 786-0
HOP-92 = system: HOP-92
M14 = system: M14
OVCAR-4 = system: OVCAR-4
SK-MEL-2 = system: SK-MEL-2
SK-OV-3 = system: SK-OV-3

Cc1cccc(C(O)c2cccnc2)c1O (stereo not drawn)
GI50 (A549): > 100 µM (inactive) | GI50 (ACHN): > 100 µM (inactive) | GI50 (BT-549): > 100 µM (inactive) | GI50 (CAKI-1): > 100 µM (inactive) | GI50 (CCRF-CEM): > 100 µM (inactive) | GI50 (COLO 205): > 100 µM (inactive) | GI50 (DU-145): > 100 µM (inactive) | GI50 (EKVX): > 100 µM (inactive) | GI50 (HCC 2998): 44.2 µM (inactive) | GI50 (HCT-116): > 100 µM (inactive) | GI50 (HCT-15): > 100 µM | GI50 (HL-60): > 100 µM (inactive) | GI50 (HOP-62): > 100 µM (inactive) | GI50 (HT-29): > 100 µM (inactive) | GI50 (Hs-578T): > 100 µM (inactive) | GI50 (IGROV-1): > 100 µM (inactive) | GI50 (K562): > 100 µM (inactive) | GI50 (KM12): > 100 µM (inactive) | GI50 (LOX IMVI): > 100 µM (inactive) | GI50 (MCF7): > 100 µM (inactive) | GI50 (MDA-MB-231): > 100 µM (inactive) | GI50 (MDA-MB-435): > 100 µM (inactive) | GI50 (MDA-N): > 100 µM (inactive) | GI50 (MOLT-4): > 100 µM (inactive) | GI50 (Malme-3M): > 100 µM (inactive) | GI50 (NCI-H226): > 100 µM (inactive) | GI50 (NCI-H23): > 100 µM (inactive) | GI50 (NCI-H460): > 100 µM (inactive) | GI50 (NCI-H522): > 100 µM (inactive) | GI50 (NCI/ADR-RES): > 100 µM (inactive) | GI50 (OVCAR-3): > 100 µM (inactive) | GI50 (OVCAR-5): 39.2 µM (inactive) | GI50 (OVCAR-8): > 100 µM (inactive) | GI50 (PC-3): > 100 µM (inactive) | GI50 (RPMI-8226): > 100 µM (inactive) | GI50 (RXF 393): > 100 µM (inactive) | GI50 (SF-268): > 100 µM (inactive) | GI50 (SF-295): > 100 µM (inactive) | GI50 (SF-539): > 100 µM (inactive) | GI50 (SK-MEL-28): > 100 µM (inactive) | GI50 (SK-MEL-5): 76.4 µM (inactive) | GI50 (SN12C): > 100 µM (inactive) | GI50 (SNB-19): > 100 µM (inactive) | GI50 (SNB-75): > 100 µM (inactive) | GI50 (SR): > 100 µM (inactive) | GI50 (SW-620): > 100 µM (inactive) | GI50 (T47D): > 100 µM (inactive) | GI50 (TK-10): > 100 µM (inactive) | GI50 (U-251): > 100 µM (inactive) | GI50 (UACC-257): 66.7 µM (inactive) | GI50 (UACC-62): 35.7 µM (inactive) | GI50 (UO-31): > 100 µM (inactive)

CC(=O)c1sc2c(c1OC(=O)c1ccco1)c(=O)n(-c1ccccc1)c(=S)n2-c1ccccc1
GI50 (786-0): 26.7 µM (inactive) | GI50 (A549): 38.2 µM (inactive) | GI50 (BT-549): 18.1 µM (inactive) | GI50 (CAKI-1): 32.5 µM (inactive) | GI50 (CCRF-CEM): 3.93 µM (inactive) | GI50 (COLO 205): 17.4 µM (inactive) | GI50 (DU-145): 26.8 µM (inactive) | GI50 (EKVX): 26.4 µM (inactive) | GI50 (HCT-116): 18.2 µM (inactive) | GI50 (HCT-15): 18.7 µM | GI50 (HL-60): 19.8 µM (inactive) | GI50 (HOP-62): 25.1 µM (inactive) | GI50 (HOP-92): 5.43 µM (inactive) | GI50 (HT-29): 6 µM (inactive) | GI50 (Hs-578T): 2.28 µM (inactive) | GI50 (IGROV-1): 23.1 µM (inactive) | GI50 (K562): 30.8 µM (inactive) | GI50 (KM12): 21.1 µM (inactive) | GI50 (LOX IMVI): 14 µM (inactive) | GI50 (M14): 8.11 µM (inactive) | GI50 (MCF7): 22.6 µM (inactive) | GI50 (MDA-MB-231): 21.5 µM (inactive) | GI50 (MDA-MB-435): 15 µM (inactive) | GI50 (MDA-N): 24.8 µM (inactive) | GI50 (MOLT-4): 19.5 µM (inactive) | GI50 (Malme-3M): 5.08 µM (inactive) | GI50 (NCI-H226): 3.58 µM (inactive) | GI50 (NCI-H23): 26.9 µM (inactive) | GI50 (NCI-H460): 31 µM (inactive) | GI50 (NCI-H522): 19.9 µM (inactive) | GI50 (NCI/ADR-RES): 18.4 µM (inactive) | GI50 (OVCAR-3): 32.8 µM (inactive) | GI50 (OVCAR-4): 28.9 µM (inactive) | GI50 (OVCAR-8): 30.3 µM (inactive) | GI50 (PC-3): 16.9 µM (inactive) | GI50 (RPMI-8226): 4.89 µM (inactive) | GI50 (RXF 393): 12.9 µM (inactive) | GI50 (SF-268): 23.2 µM (inactive) | GI50 (SF-295): 5.16 µM (inactive) | GI50 (SF-539): 4.19 µM (inactive) | GI50 (SK-MEL-28): 23.8 µM (inactive) | GI50 (SK-MEL-2): 10.4 µM (inactive) | GI50 (SK-MEL-5): 5.81 µM (inactive) | GI50 (SK-OV-3): 16 µM (inactive) | GI50 (SN12C): 26 µM (inactive) | GI50 (SNB-19): 28.2 µM (inactive) | GI50 (SNB-75): 21.8 µM (inactive) | GI50 (SR): 29.4 µM (inactive) | GI50 (SW-620): 26.6 µM (inactive) | GI50 (T47D): 13 µM (inactive) | GI50 (TK-10): 31.8 µM (inactive) | GI50 (U-251): 23.3 µM (inactive) | GI50 (UACC-257): 27.5 µM (inactive) | GI50 (UACC-62): > 10 µM (inactive) | GI50 (UO-31): 20.3 µM (inactive)

O=C(Cc1ccccc1)N/N=C/c1ccccc1O
GI50 (786-0): 6.14 µM (inactive) | GI50 (A549): 26.1 µM (inactive) | GI50 (ACHN): 5.15 µM (inactive) | GI50 (BT-549): 27.9 µM (inactive) | GI50 (CAKI-1): 5.92 µM (inactive) | GI50 (CCRF-CEM): 4.94 µM (inactive) | GI50 (COLO 205): 4.09 µM (inactive) | GI50 (DU-145): 23.3 µM (inactive) | GI50 (EKVX): 5.28 µM (inactive) | GI50 (HCC 2998): 11.2 µM (inactive) | GI50 (HCT-116): 7.55 µM (inactive) | GI50 (HCT-15): 4.25 µM | GI50 (HL-60): 6.3 µM (inactive) | GI50 (HOP-92): 9.14 µM (inactive) | GI50 (HT-29): 4.84 µM (inactive) | GI50 (Hs-578T): 36.1 µM (inactive) | GI50 (IGROV-1): 7.85 µM (inactive) | GI50 (K562): 13.9 µM (inactive) | GI50 (KM12): 32.7 µM (inactive) | GI50 (LOX IMVI): 9.42 µM (inactive) | GI50 (M14): 10.5 µM (inactive) | GI50 (MCF7): 3.94 µM (inactive) | GI50 (MDA-MB-231): > 100 µM (inactive) | GI50 (MDA-MB-435): 28.6 µM (inactive) | GI50 (MDA-N): 21.8 µM (inactive) | GI50 (MOLT-4): 4.55 µM (inactive) | GI50 (Malme-3M): 12.6 µM (inactive) | GI50 (NCI-H226): 14.1 µM (inactive) | GI50 (NCI-H23): 17.8 µM (inactive) | GI50 (NCI-H460): 5.6 µM (inactive) | GI50 (NCI-H522): 13.2 µM (inactive) | GI50 (NCI/ADR-RES): 3.98 µM (inactive) | GI50 (OVCAR-3): 3.36 µM (inactive) | GI50 (OVCAR-4): 15.7 µM (inactive) | GI50 (OVCAR-5): 20.6 µM (inactive) | GI50 (OVCAR-8): 8.93 µM (inactive) | GI50 (PC-3): 82.6 µM (inactive) | GI50 (RPMI-8226): 15.9 µM (inactive) | GI50 (SF-268): 8.57 µM (inactive) | GI50 (SF-295): 10.3 µM (inactive) | GI50 (SF-539): 24.8 µM (inactive) | GI50 (SK-MEL-28): 40.4 µM (inactive) | GI50 (SK-MEL-2): > 100 µM (inactive) | GI50 (SK-MEL-5): 12 µM (inactive) | GI50 (SK-OV-3): 15.9 µM (inactive) | GI50 (SN12C): 17.2 µM (inactive) | GI50 (SNB-19): 33.1 µM (inactive) | GI50 (SNB-75): 12.5 µM (inactive) | GI50 (SR): 5.52 µM (inactive) | GI50 (SW-620): 19.3 µM (inactive) | GI50 (T47D): 4.29 µM (inactive) | GI50 (TK-10): 22.4 µM (inactive) | GI50 (U-251): 19.5 µM (inactive) | GI50 (UACC-257): 9.57 µM (inactive) | GI50 (UACC-62): 8.95 µM (inactive) | GI50 (UO-31): 6.52 µM (inactive)
